Experiments:
Assay type in all cases: in vivo
[1] = tested on: CYPES (Cyperus esculentus L., yellow nutsedge); test: Postemergence field trials in direct-seeded rice, Greece and Italy (Example IV); settings: foliar
Description: Multiple post-emergence field trials were conducted under field conditions in Tolima, Colombia; Thessaloniki, Greece; Ottobiano and Copiano, Italy; Greenville, Miss. and Eagle Lake, Tex., USA; and water-injected treatments were tested at Ryugasaki, Japan. Trial sites were located in commercially grown fields of direct-seeded rice (Oryza sativa) using standard herbicide small plot research methodology, except in Japan where transplanted rice was utilized for the field trial. Post-emergence trial plot size varied from 2 to 3 meter (m)×5 to 8 m (width×length) with 4 replicates per treatment. Water-injected trial plot size was 2×2 m with 3 replicates per treatment. The rice crop was grown using normal cultural practices for fertilization, seeding, watering, flooding and maintenance to ensure good growth of the crop and the weeds.
All treatments in the post-emergence field trials were applied using a backpack compressed air/gas sprayer with flat fan nozzles (80° or 110°) calibrated to apply 187 to 300 L/ha spray volume at approximately 200-400 kPa nozzle pressure. In Japan, treatments were water-injected applied where the specified amount of commercial product was mixed in 100 mls of water per replicate and applied directly into 3 cm deep water containing the crop and weeds. Treatments consisted of the benzyl ester of 4-amino-3-chloro-5-fluoro-6-(4-chloro-2-fluoro-3-methoxy-phenyl)pyridine-2-carboxylic acid (Compound A), formulated as an SC (suspension concentrate), and various herbicidal components alone and in combination.
Commercially available products of penoxsulam (Viper 20OD® (Europe), Grasp 240SC® (USA), and Wideattack 37.5SC® (Japan)) were mixed in water at appropriate formulated product rates to achieve the desired rates based on a unit area of application (hectare) to achieve the desired rates as shown. Treatments were rated at 15 to 56 days after application (DAA) as compared to the untreated control plants. Visual weed control was scored on a scale of 0 to 100 percent where 0 corresponds to no injury and 100 corresponds to complete kill.
All treatment results, both for the single product and mixtures, are an average of 3 to 4 replicates. The trial sites had naturally occurring populations of weeds. The weed spectrum included, but was not limited to, broadleaf signalgrass (Brachiaria platyphylla (Griseb.) Nash or Urochloa platyphylla (Nash) R.D. Webster, BRAPP), smallflower umbrellaplant (Cyperus difformis L., CYPDI), yellow nutsedge (Cyperus esculentus L., CYPES), multiple Echinochloa species in the same field (ECHSS) in Italy (mixed ECHSS biotypes), Amazon sprangletop (Leptochloa panicoides (J. Presl) A.S. Hitchc., LEFPA), and Japanese bulrush (Schoenoplectus juncoides (Roxb.) Palla, SCPJU).

[2] = tested on: LEFCH (Leptochloa chinensis (L.) Nees, Chinese sprangletop); test: Postemergence foliar-applied herbicidal mixtures, direct seeded rice, greenhouse (Example I)
Text: (§1) Seeds or nutlets of the desired test plant species were planted in a soil matrix prepared by mixing a loam or sandy loam soil (e.g., 28.6 percent silt, 18.8 percent clay, and 52.6 percent sand, with a pH of about 5.8 and an organic matter content of about 1.8 percent) and calcareous grit in an 80 to 20 ratio. The soil matrix was contained in plastic pots with a volume of 1 quart and a surface area of 83.6 square centimeters (cm^2). When required to ensure good germination and healthy plants, a fungicide treatment and/or other chemical or physical treatment was applied. The plants were grown for 8-22 days in a greenhouse with an approximate 14 h photoperiod which was maintained at about 29° C. during the day and about 26° C. during the night. Nutrients (Peters Excel® 15-5-15 5-Ca 2-Mg and iron chelate) were applied in the irrigation solution as needed and water was added on a regular basis. Supplemental lighting was provided with overhead metal halide 1000-Watt lamps as necessary. The plants were employed for testing when they reached the first through fourth true leaf stage.
(§2) Treatments consisted of the acid or esters of 4-amino-3-chloro-5-fluoro-6-(4-chloro-2-fluoro-3-methoxy-phenyl)pyridine-2-carboxylic acid (Compound A), each formulated as an SC (suspension concentrate), and various herbicidal components alone and in combination. Forms of compound A were applied on an acid equivalent basis.
(§3) Other herbicidal components were applied on an active ingredient basis and included acetolactate synthase (ALS)-inhibiting herbicides (sulfonamide chemical class) penoxsulam formulated as Grasp® SC, diclosulam formulated as Strongarm®, and cloransulam-methyl formulated as FirstRate®, flumetsulam formulated as Flumetsulam WG, and metosulam formulated as Eclipse®.
(§4) Treatment requirements were calculated based upon the rates being tested, the concentration of active ingredient or acid equivalent in the formulation, and a 12 mL application volume at a rate of 187 L/ha.
(§5) For treatments comprised of formulated compounds, measured amounts of compounds were placed individually in 25 mL glass vials and diluted in a volume of 1.25% (v/v) Agri-Dex® crop oil concentrated to obtain 12× stock solutions. […] Application solutions were prepared by adding an appropriate amount of each stock solution (e.g., 1 mL) and diluted to the appropriate final concentrations with the addition of 10 mL of an aqueous mixture of 1.25% (v/v) crop oil concentrate so that the final spray solutions contained 1.25+/−0.05% (v/v) crop oil concentrate.
(§6) All stock solutions and applications solutions were visually inspected for compound compatibility prior to application. Spray solutions were applied to the plant material with an overhead Mandel track sprayer equipped with an 8002E nozzle calibrated to deliver 187 L/ha over an application area of 0.503 m^2 at a spray height of 18 to 20 inches (46 to 50 cm) above average plant canopy height. Control plants were sprayed in the same manner with the solvent blank.
(§7) The treated plants and control plants were placed in a greenhouse as described above and watered by sub-irrigation to prevent wash-off of the test compounds. After approximately 3 weeks, the condition of the test plants as compared with that of the untreated plants was determined visually and scored on a scale of 0 to 100 percent where 0 corresponds to no injury or growth inhibition and 100 corresponds to complete kill.
(§8) Colby's equation was used to determine the herbicidal effects expected from the mixtures (Colby, S. R. 1967. Calculation of the synergistic and antagonistic response of herbicide combinations. Weeds 15:20-22.).
(§9) The following equation was used to calculate the expected activity of mixtures containing two active ingredients, A and B: Expected=A+B−(A×B/100)

[3] = tested on: IPOHE (Ipomoea hederacea Jacq., ivyleaf morningglory); test: as above
Text: as §1, §2, §3, §4, §5, §6, §7, §8, §9

[4] = tested on: ISCRU (Ischaemum rugosum Salisb., saramollagrass); test: as above
Text: as §1, §2, §3, §4, §5, §6, §7, §8, §9

[5] = tested on: BRAPP (Brachiaria platyphylla (Griseb.) Nash, broadleaf signalgrass); test: as above
Text: as §1, §2, §3, §4, §5, §6, §7, §8, §9

[6] = Compound A Benzyl Ester 4.38 gae/ha
[7] = Compound A Benzyl Ester 8 gae/ha
[8] = Compound A Benzyl Ester 8.75 gae/ha
[9] = Compound A Benzyl Ester 16 gae/ha
[10] = Compound A Benzyl Ester 17.5 gae/ha
[11] = Compound A Benzyl Ester 32 gae/ha
[12] = Penoxsulam 4.38 gai/ha, Table 3
[13] = Penoxsulam 8.75 gai/ha, Table 2
[14] = Penoxsulam 8.75 gai/ha, Table 3
[15] = Penoxsulam 17.5 gai/ha, Table 3

SMILES: COc1c(Cl)ccc(-c2nc(C(=O)OCc3ccccc3)c(Cl)c(N)c2F)c1F [Compound A Benzyl Ester, benzyl ester of 4-amino-3-chloro-5-fluoro-6-(4-chloro-2-fluoro-3-methoxy-phenyl)pyridine-2-carboxylic acid]
- Visual Weed Control (%) - 54-56 DAA CYPES Obs ([1]; Compound A Benzyl Ester 24 gae/ha): 15%
- Visual Weed Control (%) - 20 DAA LEFCH Obs [2, 6]: 10%
- Visual Weed Control (%) - 22 DAA LEFCH Obs [2, 7]: 10%
- Visual Weed Control (%) - 20 DAA LEFCH Obs [2, 8]: 20%
- Visual Weed Control (%) - 22 DAA LEFCH Obs [2, 9]: 25%
- Visual Weed Control (%) - 20 DAA LEFCH Obs [2, 10]: 60%
- Visual Weed Control (%) - 22 DAA LEFCH Obs [2, 11]: 55%
- Visual Weed Control (%) - 27 DAA IPOHE Obs [3, 6]: 10%
- Visual Weed Control (%) - 27 DAA IPOHE Obs [3, 8]: 10%
- Visual Weed Control (%) - 27 DAA IPOHE Obs [3, 10]: 10%
- Visual Weed Control (%) - 21 DAA ISCRU Obs [4, 7]: 20%
- Visual Weed Control (%) - 21 DAA ISCRU Obs [4, 9]: 0%
- Visual Weed Control (%) - 22 DAA BRAPP Obs [5, 7]: 60%
- Visual Weed Control (%) - 22 DAA BRAPP Obs [5, 9]: 60%
- Visual Weed Control (%) - 21 DAA BRAPP Obs [5, 10]: 80%
- Visual Weed Control (%) - 22 DAA BRAPP Obs [5, 11]: 90%

SMILES: COc1cnc(OC)n2nc(NS(=O)(=O)c3c(OCC(F)F)cccc3C(F)(F)F)nc12 [Penoxsulam, 2-(2,2-difluoroethoxy)-N-(5,8-dimethoxy[1,2,4]triazolo[1,5-c]pyrimidin-2-yl)-6-(trifluoromethyl)benzenesulfonamide, reference compound]
- Visual Weed Control (%) - 54-56 DAA CYPES Obs ([1]; Penoxsulam 40 gai/ha): 55%
- Visual Weed Control (%) - 19 DAA LEFCH Obs ([2]; Penoxsulam 40 gai/ha): 0%
- Visual Weed Control (%) - 27 DAA IPOHE Obs [3, 12]: 10%
- Visual Weed Control (%) - 27 DAA IPOHE Obs ([3]; Penoxsulam 8.75 gai/ha, Table 1): 15%
- Visual Weed Control (%) - 27 DAA IPOHE Obs [3, 13]: 15%
- Visual Weed Control (%) - 27 DAA IPOHE Obs [3, 14]: 15%
- Visual Weed Control (%) - 27 DAA IPOHE Obs ([3]; Penoxsulam 17.5 gai/ha, Table 1): 20%
- Visual Weed Control (%) - 27 DAA IPOHE Obs ([3]; Penoxsulam 17.5 gai/ha, Table 2): 20%
- Visual Weed Control (%) - 27 DAA IPOHE Obs [3, 15]: 20%
- Visual Weed Control (%) - 21 DAA ISCRU Obs ([4]; Penoxsulam 10 gai/ha): 0%
- Visual Weed Control (%) - 21 DAA ISCRU Obs ([4]; Penoxsulam 20 gai/ha): 0%
- Visual Weed Control (%) - 21 DAA BRAPP Obs ([5]; Penoxsulam 4.38 gai/ha, Table 2): 0%
- Visual Weed Control (%) - 21 DAA BRAPP Obs [5, 12]: 0%
- Visual Weed Control (%) - 21 DAA BRAPP Obs [5, 13]: 20%
- Visual Weed Control (%) - 21 DAA BRAPP Obs [5, 14]: 20%
- Visual Weed Control (%) - 21 DAA BRAPP Obs [5, 15]: 40%
